Drawing on ChEMBL document CHEMBL1201862, “PubChem BioAssay data set” (2004), this text covers IC50 and AC50 for 5 molecules.

Holding throughout (type): functional
Assay [1] deals with T1, Sentrin-specific protease 7 (Homo sapiens, UniProt Q9BQF6).
T1 sequence (Q9BQF6 whole entry): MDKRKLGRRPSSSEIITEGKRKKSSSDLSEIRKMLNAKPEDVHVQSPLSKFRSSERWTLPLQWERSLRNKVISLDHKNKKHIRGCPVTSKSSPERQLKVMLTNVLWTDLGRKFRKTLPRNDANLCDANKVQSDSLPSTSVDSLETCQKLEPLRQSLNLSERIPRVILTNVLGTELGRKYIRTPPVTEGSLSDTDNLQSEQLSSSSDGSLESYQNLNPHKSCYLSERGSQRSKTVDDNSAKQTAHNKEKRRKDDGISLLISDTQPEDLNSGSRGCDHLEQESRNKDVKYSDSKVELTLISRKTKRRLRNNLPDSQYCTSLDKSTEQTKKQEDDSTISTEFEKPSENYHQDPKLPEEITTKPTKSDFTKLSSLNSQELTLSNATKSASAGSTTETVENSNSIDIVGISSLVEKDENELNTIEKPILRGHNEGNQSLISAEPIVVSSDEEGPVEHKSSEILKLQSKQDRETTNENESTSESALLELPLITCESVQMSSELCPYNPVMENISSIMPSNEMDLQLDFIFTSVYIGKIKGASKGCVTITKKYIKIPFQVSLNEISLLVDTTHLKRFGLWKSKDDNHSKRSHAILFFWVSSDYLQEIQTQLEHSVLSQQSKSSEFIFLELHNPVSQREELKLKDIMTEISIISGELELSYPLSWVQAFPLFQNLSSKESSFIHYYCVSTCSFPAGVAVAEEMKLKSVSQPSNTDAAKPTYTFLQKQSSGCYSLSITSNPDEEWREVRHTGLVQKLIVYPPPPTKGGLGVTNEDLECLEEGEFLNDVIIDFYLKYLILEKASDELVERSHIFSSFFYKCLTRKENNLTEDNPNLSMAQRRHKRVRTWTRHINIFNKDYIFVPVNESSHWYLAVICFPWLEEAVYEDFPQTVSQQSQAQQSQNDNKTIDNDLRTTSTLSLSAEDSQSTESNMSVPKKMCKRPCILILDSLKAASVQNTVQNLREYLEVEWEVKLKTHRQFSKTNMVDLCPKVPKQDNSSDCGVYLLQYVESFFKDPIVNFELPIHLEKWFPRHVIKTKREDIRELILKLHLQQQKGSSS

For assay [2], the target named is T2, Sentrin-specific protease 6 (Homo sapiens, UniProt Q9GZR1).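 Also: Luminescence-based dose-response confirmatory assay of SENP6 inhibition, following up an ultra-high-throughput screen.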
T2 sequence (Q9GZR1 whole entry): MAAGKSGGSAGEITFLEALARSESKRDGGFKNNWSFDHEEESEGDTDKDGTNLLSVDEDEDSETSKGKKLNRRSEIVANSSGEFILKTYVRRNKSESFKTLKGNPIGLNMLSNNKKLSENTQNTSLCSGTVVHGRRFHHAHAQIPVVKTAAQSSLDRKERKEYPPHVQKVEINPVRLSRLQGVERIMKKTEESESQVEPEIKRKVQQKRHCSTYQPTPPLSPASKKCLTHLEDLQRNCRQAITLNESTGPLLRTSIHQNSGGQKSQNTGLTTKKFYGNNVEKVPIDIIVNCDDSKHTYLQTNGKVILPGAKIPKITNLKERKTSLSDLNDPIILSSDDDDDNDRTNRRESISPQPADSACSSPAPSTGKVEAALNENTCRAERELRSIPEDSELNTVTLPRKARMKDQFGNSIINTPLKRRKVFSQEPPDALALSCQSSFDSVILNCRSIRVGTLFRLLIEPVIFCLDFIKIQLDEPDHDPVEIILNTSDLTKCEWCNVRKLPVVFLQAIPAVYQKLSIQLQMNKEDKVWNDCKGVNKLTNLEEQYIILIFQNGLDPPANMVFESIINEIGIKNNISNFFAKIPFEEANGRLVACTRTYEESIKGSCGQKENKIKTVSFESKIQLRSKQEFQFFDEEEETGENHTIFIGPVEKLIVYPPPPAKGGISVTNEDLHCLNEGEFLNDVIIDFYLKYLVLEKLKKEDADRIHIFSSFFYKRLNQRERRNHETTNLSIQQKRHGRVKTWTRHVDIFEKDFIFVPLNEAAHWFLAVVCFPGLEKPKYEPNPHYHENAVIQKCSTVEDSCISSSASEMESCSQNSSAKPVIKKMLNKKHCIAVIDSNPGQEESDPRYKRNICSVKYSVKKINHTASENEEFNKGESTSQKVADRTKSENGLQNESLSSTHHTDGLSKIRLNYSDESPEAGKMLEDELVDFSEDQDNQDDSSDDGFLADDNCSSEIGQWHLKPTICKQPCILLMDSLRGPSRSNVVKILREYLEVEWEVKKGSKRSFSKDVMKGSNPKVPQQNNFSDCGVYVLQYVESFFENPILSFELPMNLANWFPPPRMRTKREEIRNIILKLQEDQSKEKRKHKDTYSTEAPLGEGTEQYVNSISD

The target in assay [3] is T3, Replicative DNA helicase DnaB (Mycobacterium tuberculosis, UniProt P9WMR3).
T3 sequence (P9WMR3 whole entry): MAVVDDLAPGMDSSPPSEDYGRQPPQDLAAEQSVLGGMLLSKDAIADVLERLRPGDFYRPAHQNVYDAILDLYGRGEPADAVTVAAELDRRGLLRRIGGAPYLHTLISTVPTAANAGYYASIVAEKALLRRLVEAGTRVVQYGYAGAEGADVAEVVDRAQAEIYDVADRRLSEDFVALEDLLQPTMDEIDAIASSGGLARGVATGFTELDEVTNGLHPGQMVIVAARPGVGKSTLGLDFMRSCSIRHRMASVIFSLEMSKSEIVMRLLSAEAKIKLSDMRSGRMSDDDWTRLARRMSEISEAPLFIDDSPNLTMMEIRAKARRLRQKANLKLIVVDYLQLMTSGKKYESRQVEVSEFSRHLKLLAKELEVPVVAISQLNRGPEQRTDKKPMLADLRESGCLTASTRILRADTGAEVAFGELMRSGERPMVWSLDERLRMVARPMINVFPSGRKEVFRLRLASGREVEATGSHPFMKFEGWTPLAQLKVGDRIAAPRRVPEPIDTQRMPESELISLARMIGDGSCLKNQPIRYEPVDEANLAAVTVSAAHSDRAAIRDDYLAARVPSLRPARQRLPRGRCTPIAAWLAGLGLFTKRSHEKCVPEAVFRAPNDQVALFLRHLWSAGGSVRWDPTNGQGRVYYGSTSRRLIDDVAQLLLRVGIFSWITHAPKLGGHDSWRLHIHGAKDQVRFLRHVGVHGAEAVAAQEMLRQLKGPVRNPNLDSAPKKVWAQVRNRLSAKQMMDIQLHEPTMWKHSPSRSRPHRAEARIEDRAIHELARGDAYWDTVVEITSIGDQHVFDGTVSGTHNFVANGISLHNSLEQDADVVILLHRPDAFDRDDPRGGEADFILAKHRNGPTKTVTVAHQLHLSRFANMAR
Put plainly: DnaB intein splicing inhibitors, dose response, biochemical, cell-free fluorescence (AID 449749).

By IC50 is commonly meant the concentration that gives 50% inhibition. In general, AC50 refers to the midpoint of the concentration-response curve, whichever way the signal moves.

The structures appear in SMILES notation. Calls of active or inactive are those of the source. Rule as the data show it, for most assays here: actives have a measured IC50 and inactives only a lower limit. Where only a bound is given, the exact number is not on record here.

Take `O=C(NC1(O)C(=O)c2ccccc2C1=O)c1ccc(C(F)(F)F)cc1`: the IC50 was 3.51 µM (active) in assay [1] and 2.66 µM (active) in assay [2].
On to `O=C(NC1(O)C(=O)c2ccccc2C1=O)c1c(Cl)cccc1Cl`, for which the figures for the IC50 in assay [1] and in assay [2] were 3.76 µM (active) and 3.53 µM (active), respectively. In addition, the AC50 in assay [3] is 17.3 µM (active).
With `CCN(c1ccccc1)c1cc2ccccc2c(=O)[nH]1`, the IC50 in assay [1] is 3.37 µM (active); in assay [2], 2.21 µM (active). The AC50 in assay [3] was > 380 µM (inactive).
As to `O=C(COC(=O)c1ccc([N+](=O)[O-])s1)Nc1ncc(C(F)(F)F)cc1Cl`, the IC50 in assay [1] was 10.5 µM (active); in assay [2], 5.68 µM (active).
In the case of `Cn1c(=O)[nH]c(=O)c2c1nc([N+](=O)[O-])n2Cc1ccccc1`, the AC50 in assay [3] was 26.2 µM (active).
